Experimental findings from patent US20260138976A1 (Hoffmann-La Roche Inc., priority 2022, published 2026) are described below.

pEC50: −log10 of the molar value.

For this test, the system named is primary human T-cells. Kind of test: Proliferation assay (5 days, CellTiter-Glo, CD3-stimulated T-cells). The settings on record: for Emax proliferation (% activation): CD3 condition, normalised to DMSO (neutral) and 20 μM reference compound A1 = 100%; for pEC50: Homo sapiens, T-cell, 120 h, CD3-stimulated primary human T-cells, 5 days, CellTiter-Glo, fitted sigmoidal curve, read-out: Tcell Proliferation CD3 EC50. The class given is cell-based. An outline of the steps:
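Proliferation read-out: ATP luminescence (CellTiter-Glo 2.0) at day 5 in expanded primary human T-cells on CD3 antibody-coated plates, with PBS-only plates as a counter screen. Compounds in 5–6 pt series (factor 3.333, top 20 or 10 μM final). Values are normalized to DMSO (neutral) and 20 μM reference A1 (100%), from sigmoidal fits.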

Consider `CC1(c2nnc(-c3ccc4c(c3)N(Cc3ccc(-c5ccc(C(F)(F)F)cc5)cc3)C(=O)[C@@H](N)CS4(=O)=O)o2)CCO1` (stereo partly drawn) [Example 48, (3R)-3-amino-7-[5-(2-methyloxetan-2-yl)-1,3,4-oxadiazol-2-yl]-1,1-dioxo-5-[[4-[4-(trifluoromethyl)phenyl]phenyl]methyl]-2,3-dihydro-1lambda6,5-benzothiazepin-4-one], for which the “Emax proliferation (% activation)” value came out at 139 % activation and the pEC50 is 6.49.

Take `N[C@H]1CS(=O)(=O)c2cc(F)c(-c3noc(N4CCCC4)n3)cc2N(Cc2ccc(-c3noc(C(F)(F)F)n3)nc2)C1=O` [Example 15, (3R)-3-amino-8-fluoro-1,1-dioxo-7-(5-pyrrolidin-1-yl-1,2,4-oxadiazol-3-yl)-5-[[6-[5-(trifluoromethyl)-1,2,4-oxadiazol-3-yl]-3-pyridyl]methyl]-2,3-dihydro-1λ^6,5-benzothiazepin-4-one]: the “Emax proliferation (% activation)” value came to 64 % activation and the pEC50 was 5.50.

Consider `CC(C)(C)c1nnc(-c2ccc3c(c2)N(Cc2ccc(-n4ccc(C(F)(F)F)n4)cc2)C(=O)[C@@H](N)CS3(=O)=O)o1` [Example 27], for which the “Emax proliferation (% activation)” value is 212 % activation and the pEC50 was 6.60.

Consider `N[C@H]1CS(=O)(=O)c2ccc(-c3nnc(N4CCOC(C(F)(F)F)C4)o3)cc2N(Cc2ccc(-c3noc(C(F)(F)F)n3)cc2)C1=O` (stereo partly drawn) [Example 74, (3R)-3-amino-1,1-dioxo-7-[5-[2-(trifluoromethyl)morpholin-4-yl]-1,3,4-oxadiazol-2-yl]-5-[[4-[5-(trifluoromethyl)-1,2,4-oxadiazol-3-yl]phenyl]methyl]-2,3-dihydro-1λ^6,5-benzothiazepin-4-one], for which the “Emax proliferation (% activation)” value was found to be 148 % activation and the pEC50 is 6.28.

Regarding `Cn1ccc(-c2ccc(CN3C(=O)[C@@H](N)CS(=O)(=O)c4ccc(-c5nnc(C(C)(C)C)o5)cc43)cc2)n1` [Example 21], the “Emax proliferation (% activation)” value came to 63 % activation and the pEC50 is 5.15.

As for `CC(C)(C)c1nc(-c2cc3c(cc2F)S(=O)(=O)C[C@H](N)C(=O)N3Cc2ccc(-c3ccc(CO)cc3)nc2)no1` [Example 7, (3R)-3-amino-7-(5-tert-butyl-1,2,4-oxadiazol-3-yl)-8-fluoro-5-[[6-[4-(hydroxymethyl)phenyl]-3-pyridyl]methyl]-1,1-dioxo-2,3-dihydro-1λ^6,5-benzothiazepin-4-one], the “Emax proliferation (% activation)” value is on record as 97 % activation and the pEC50 was 5.45.

Consider `CCN1CC(c2nnc(-c3ccc4c(c3)N(Cc3ccc(-c5noc(C(C)(C)C)n5)cc3)C(=O)[C@@H](N)CS4(=O)=O)o2)CC(F)(F)C1` (stereo partly drawn) [Example 181, (3R)-3-amino-5-[[4-(5-tert-butyl-1,2,4-oxadiazol-3-yl)phenyl]methyl]-7-[5-(1-ethyl-5,5-difluoro-3-piperidyl)-1,3,4-oxadiazol-2-yl]-1,1-dioxo-2,3-dihydro-1λ^6,5-benzothiazepin-4-one], for which the “Emax proliferation (% activation)” value is reported as 105 % activation and the pEC50 was 6.14.

Turning to `N[C@H]1CS(=O)(=O)c2ccc(-c3noc(-c4cccnc4Cl)n3)cc2N(Cc2ccc(-c3noc(C4CC4)n3)cc2)C1=O` [Example 85, (3R)-3-amino-7-[5-(2-chloro-3-pyridyl)-1,2,4-oxadiazol-3-yl]-5-[[4-(5-cyclopropyl-1,2,4-oxadiazol-3-yl)phenyl]methyl]-1,1-dioxo-2,3-dihydro-1λ^6,5-benzothiazepin-4-one], the “Emax proliferation (% activation)” value is reported as 62 % activation and the pEC50 was 5.09.

Take `COC(=O)N1CC2CC(c3nnc(-c4ccc5c(c4)N(Cc4ccc(-c6ccc(C(F)(F)F)cc6)cc4)C(=O)[C@@H](N)CS5(=O)=O)o3)(C2)C1` [Example 60, methyl 1-[5-[(3R)-3-amino-1,1,4-trioxo-5-[[4-[4-(trifluoromethyl)phenyl]phenyl]methyl]-2,3-dihydro-1λ^6,5-benzothiazepin-7-yl]-1,3,4-oxadiazol-2-yl]-3-azabicyclo[3.1.1]heptane-3-carboxylate]: the “Emax proliferation (% activation)” value stood at 110 % activation and the pEC50 is 7.38.

`CC1(c2nnc(-c3ccc4c(c3)N(Cc3ccc(-c5ccc(C(F)(F)F)cn5)cc3)C(=O)[C@@H](N)CS4(=O)=O)o2)COC1` [Example 150, (3R)-3-amino-7-[5-(3-methyloxetan-3-yl)-1,3,4-oxadiazol-2-yl]-1,1-dioxo-5-[[4-[5-(trifluoromethyl)-2-pyridyl]phenyl]methyl]-2,3-dihydro-1λ^6,5-benzothiazepin-4-one]: the “Emax proliferation (% activation)” value turned out to be 79 % activation and the pEC50 is 6.18.

With `N[C@H]1CS(=O)(=O)c2ccc(-c3nnc(N4CCOC5(CC5)C4)o3)cc2N(Cc2ccc(-c3noc(C(F)(F)F)n3)cc2)C1=O` [Example 77], the “Emax proliferation (% activation)” value is given as 58 % activation and the pEC50 is 5.41.

`COC(=O)N1CC2CC(c3nnc(-c4ccc5c(c4)N(Cc4ccc(-c6ccc(OC)cc6)cc4)C(=O)[C@@H](N)CS5(=O)=O)o3)(C2)C1` [Example 59, methyl 1-[5-[(3R)-3-amino-5-[[4-(4-methoxyphenyl)phenyl]methyl]-1,1,4-trioxo-2,3-dihydro-1λ^6,5-benzothiazepin-7-yl]-1,3,4-oxadiazol-2-yl]-3-azabicyclo[3.1.1]heptane-3-carboxylate]: the “Emax proliferation (% activation)” value worked out at 103 % activation and the pEC50 was 7.54.

As to `CC(C)(C)c1nnc(-c2ccc3c(c2)N(Cc2ccc(-c4noc(C(F)(F)F)n4)cc2)C(=O)[C@@H](N)CS3(=O)=O)o1` [Example 23, (3R)-3-amino-7-(5-tert-butyl-1,3,4-oxadiazol-2-yl)-1,1-dioxo-5-[[4-[5-(trifluoromethyl)-1,2,4-oxadiazol-3-yl]phenyl]methyl]-2,3-dihydro-1λ^6,5-benzothiazepin-4-one], the “Emax proliferation (% activation)” value is on record as 136 % activation and the pEC50 was 6.50.

For `CC(C)Nc1nnc(-c2cc3c(cc2F)S(=O)(=O)C[C@H](N)C(=O)N3Cc2ccc(-c3noc(C(F)(F)F)n3)cc2)o1` [Example 6, (3R)-3-amino-8-fluoro-7-[5-(isopropylamino)-1,3,4-oxadiazol-2-yl]-1,1-dioxo-5-[[4-[5-(trifluoromethyl)-1,2,4-oxadiazol-3-yl]phenyl]methyl]-2,3-dihydro-1λ^6,5-benzothiazepin-4-one], the “Emax proliferation (% activation)” value is 109 % activation and the pEC50 is 6.12.

Consider `N[C@H]1CS(=O)(=O)c2ccc(-c3nnc(C4(C5CC5)CCCO4)o3)cc2N(Cc2ccc(-c3nnc(C(F)(F)F)o3)cc2)C1=O` (stereo partly drawn) [Example 97, (3R)-3-amino-7-[5-(2-cyclopropyltetra-hydrofuran-2-yl)-1,3,4-oxadiazol-2-yl]-1,1-dioxo-5-[[4-[5-(trifluoromethyl)-1,3,4-oxadiazol-2-yl]phenyl]methyl]-2,3-dihydro-1λ6,5-benzothiazepin-4-one], for which the “Emax proliferation (% activation)” value was 96 % activation and the pEC50 is 6.43.

Turning to `COC(F)(c1nnc(-c2ccc3c(c2)N(Cc2ccc(-c4nnc(C5CC5)o4)cc2)C(=O)[C@@H](N)CS3(=O)=O)o1)C(F)(F)F` (stereo partly drawn) [Example 65], the “Emax proliferation (% activation)” value came out at 102 % activation and the pEC50 was 6.17.

In the case of `Cc1nc(F)ccc1-c1nc(-c2ccc3c(c2)N(Cc2ccc(-c4noc(C5CC5)n4)cc2)C(=O)[C@@H](N)CS3(=O)=O)no1` [Example 86, (3R)-3-amino-5-[[4-(5-cyclopropyl-1,2,4-oxadiazol-3-yl)phenyl]methyl]-7-[5-(6-fluoro-2-methyl-3-pyridyl)-1,2,4-oxadiazol-3-yl]-1,1-dioxo-2,3-dihydro-1λ^6,5-benzothiazepin-4-one], the “Emax proliferation (% activation)” value is on record as 99 % activation and the pEC50 was 5.78.

With `N[C@H]1CS(=O)(=O)c2ccc(-c3noc(-c4cccnc4C(F)(F)F)n3)cc2N(Cc2ccc(-c3noc(C4CC4)n3)cc2)C1=O` [Example 87, (3R)-3-amino-5-[[4-(5-cyclopropyl-1,2,4-oxadiazol-3-yl)phenyl]methyl]-1,1-dioxo-7-[5-[2-(trifluoromethyl)-3-pyridyl]-1,2,4-oxadiazol-3-yl]-2,3-dihydro-1λ^6,5-benzothiazepin-4-one], the “Emax proliferation (% activation)” value was found to be 106 % activation and the pEC50 was 5.44.

As for `COc1ccc(-c2ccc(CN3C(=O)[C@@H](N)CS(=O)(=O)c4ccc(-c5nnc(N6CCC(F)(F)C6)o5)cc43)cc2)cc1` [Example 76, (3R)-3-amino-7-[5-(3,3-difluoropyrrolidin-1-yl)-1,3,4-oxadiazol-2-yl]-5-[[4-(4-methoxyphenyl)phenyl]methyl]-1,1-dioxo-2,3-dihydro-1λ^6,5-benzothiazepin-4-one], the “Emax proliferation (% activation)” value was 263 % activation and the pEC50 was 5.87.

Regarding `N[C@H]1CS(=O)(=O)c2ccc(-c3nnc(C4(CO)CCCO4)o3)cc2N(Cc2ccc(-c3ccc(C(F)(F)F)cc3)cc2)C1=O` (stereo partly drawn) [Example 55], the “Emax proliferation (% activation)” value was 59 % activation and the pEC50 was 5.96.

For the molecule `N[C@H]1CS(=O)(=O)c2ccc(-c3nnc(N4CCOC(C(F)(F)F)C4)o3)cc2N(Cc2ccc(-c3ccc(C(F)(F)F)cc3)cc2)C1=O` (stereo partly drawn) [Example 73, (3R)-3-amino-1,1-dioxo-7-[5-[2-(trifluoromethyl)morpholin-4-yl]-1,3,4-oxadiazol-2-yl]-5-[[4-[4-(trifluoromethyl)phenyl]phenyl]methyl]-2,3-dihydro-1λ^6,5-benzothiazepin-4-one], the “Emax proliferation (% activation)” value was found to be 95 % activation and the pEC50 is 6.08.
